Tests used:
Format in all cases: cell-based, human
caspase-3 = assay: Fluorometric caspase-3 activity assay in carcinoma cells; conditions: P5 and P693 cells, cisplatin 2 µg/ml alone; Fig. 1c
Description: (§1) • (a) Human epidermoid lung cancer cells (P693) were injected into nude mice. At a tumour volume of 500 mm^3 weekly treatment with cisplatin (5mg/kg/week) was started. Cisplatin was injected intraperitoneally in the absence (CIS) or presence (DEX/CIS) of DEX which was added to the drinking water (0.28 mg/L) for the duration of the experiment. […] As controls, tumor growth of xenografts from mice which received neither cisplatin nor DEX (CO) or from mice which received DEX only (DEX) was determined. The tumour volume in each animal was measured at weekly intervals for a period of 5 weeks. Data are presented as the means +/- SD of 6 to 8 animals. • (b) The human cervical carcinoma cell lines HeLa and P5 were γ-irradiated (10 Gy) or treated with cisplatin (2 µg/ml) in the absence (white bars) or presence (black bars) of DEX (1 µM). The percentage of apoptosis was measured in untreated (CO) and stimulated cells by annexin-staining and FACS-analysis at the time points indicated. (c) P5, P693 and human leukemic T cells (CEM) cells were treated with cisplatin (2 µg/ml) in the absence or presence of DEX as indicated. 24 and 48 h following treatment cells were lysed and caspase-3 activity was determined by a fluorescent caspase-3 assay and spectroscopy.

[1] = system: P5 and HeLa cervix carcinoma cells; assay: Apoptosis by annexin-V/FITC staining and flow cytometry in cervix carcinoma cells; conditions: cisplatin 2 µg/ml, absence of DEX, 24-72 h; Fig. 1b
Description: as §1

caspase-9 and caspase-3 = assay: Caspase-9 and caspase-3 protein expression in P5 cells (immunofluorescence, Western blot); conditions: Fig. 4c
Description: P5 cells either untreated (CO) or stimulated with cisplatin (CIS, 2 µg/ml) were incubated in the absence or presence of DEX (1 µM). • (a) 6 and 24 h later RNA was extracted and assayed by RT-PCR for expression of caspase-9. Expression of the GAPDH gene served as control for equal conditions. • (b) 24 h after stimulation expression of caspase-9 proteins was examined by immunofluorescence staining using a rabbit polyclonal caspase-9 antibody and a FITC-coupled secondary antibody. Staining with the secondary antibody alone served as control for unspecific binding. • (c) 48 and 72 h after treatment whole cell proteins were extracted and analysed for expression of caspase-9 and caspase-3. The protein sizes in kDa are indicated on the right. […]
• (A) Cell culture. […] The mice were given 0.28 mg/L DEX in drinking water, and the amount of water consumed was monitored. […] The tumour volumes were measured using callipers, and calculated using, as an approximation, the formula for volume of a hemi-ellipsoid: π(width^2 x length)/6. […] Early apoptotic changes were identified by staining of cells with fluoresceinthiocyanate (FITC)-conjugated annexin V and propidium iodide (Becton Dickinson, Heidelberg, Germany) and analysed by flow cytometry (FACScan, Becton Dickinson) as described (Herr et al., EMBO J. 16 (1997), 6200-6208) • (E) Immunohistochemistry. […]

caspase-9 = assay: Caspase-9 expression in leukemic T cells; conditions: cisplatin, data not shown

N.N.[Cl][Pt][Cl] [cisplatin] was tested, and the caspase-3 activity (caspase-3) was “induced 48 h following cisplatin”, the apoptosis [1] was “detectable 24 h following treatment and increased during the next 48 and 72 h” and the “protein levels of procaspase-9” value (caspase-9 and caspase-3; Western blot at 48 and 72 h) was “reduced the protein levels of procaspase-9”. The procaspase-3 cleavage (caspase-9 and caspase-3; cisplatin alone, 48 and 72 h) was “cleaved 48 and 72 h following cisplatin” and the “expression of caspase-9” value (caspase-9) was “neither induced”.
